In one assay the target is HLA-DRB1*0401 (Homo sapiens (Human), UniProt P01903+P01911, A100K/A169T/DEL228-266/F76Y/I96L/K127E/L162R/M171V/N62H/P40V/Q125Y/R42H/S133A/S149N/S66Y/V115G/V209L/W38E). The assay is described as follows: HLA-DR4 HTRF assay. The assay is classed as binding. The settings on record: inhibition of loading of Alexa Fluor 647-labeled Cit-CII peptide onto HLA-DR4 (CLIP cleaved). The text has this:
(§1) The screening was made through two sets of HLA-DR/peptide-dependent assays: a peptide-dependent Homogeneous Time Resolved Fluorescence (HTRF) binding assay followed by an HLA-DR dependent, peptide-specific T cell functional assay (HLA-DR4-restricted peptide-specific T cell-based assay hybridoma assay). The HTRF binding assay was designed to measure the ability of the small molecule to inhibit the loading of a fluorescently labeled high-affinity peptide onto HLA-DR peptide binding groove. The peptide-specific T cell functional assay assesses T cell activation resulting from proper peptide presentation onto HLA-DR expressed on the surface of the antigen-presenting cells to the T cell and is used to screen compounds able to inhibit such HLA-DR/peptide-dependent T cell activation.
The HLA-DR4 HTRF assay is based on HTRF technology and designed to measure ability of compounds to prevent loading of high-affinity Alexa Fluor 647-labeled Citrullinated Collagen 111236-1249 peptide (named Cit-CII/AF647, aa1236-1249, LQYM-Cit-ADQAAGGLR; Alexa Fluor 647 dye commercially available from Invitrogen) onto HLA-DRB1*0401. The HTRF assay technology is based on the energy transfer between two fluorophores, a donor and an acceptor, when in close proximity. The HLA-DR4 protein construct was uniquely designed for this assay and has (i) the α and […] subunits fused to human Fc chains and (ii) the invariant chain-associated peptide (CLIP peptide, aa85-101), the universal moderate/low-affinity HLA-DR binder, attached to the beta chain through a HRV3C protease-cleavable linker.
Because of the low stability of peptide free HLA-DR4 heterodimer, the construct was purified and delivered with CLIP peptide attached to the N-terminal of the β chain. The HLA-DR4 heterodimer was pre-treated with 3 μL HRV3C protease (Novagen E71493-3) (˜2 U/μL) per mg of the cleavable protein to cleave CLIP peptide and incubated overnight (>16 hrs) at 4° C. This method yielded at least 80% cleavage and allowed the CLIP peptide to be potentially exchanged with the fluorescently labeled high affinity cit-CII1236-1249 peptide. A batch of […] protein with CLIP cleaved was prepared for multiple experiments and was stable for several months when stored at 4° C.
In this assay, anti-human Fc antibody labeled with Tb-Cryptate probe was used as the donor (commercially available from Cisbio—PAb Anti-human IgG-Tb Cryptate, Cat #61HFCTAB) and high affinity peptide Citrullinated CII (cit-CII) labeled with Alexa 647 fluorophore was utilized as the acceptor. Inhibitors of the exchange of the pre-cleaved CLIP peptide for the high affinity cit-CII1236-1249 peptide onto HLA-DRB1*04:01 caused a decrease in HTRF signal as measured by the ratio of the 665 nm/620 nm emitted signal. Screening compounds were robotically pre-dispensed (150 nL, Hummingbird, DigiLab/CyBio AG) onto black, round bottom, nontreated, 1536-well assay plates (Corning #3939), were incubated with 3 nM HLA-DR4 (with CLIP cleaved) plus 1 nM Human IgG-Tb (anti-Fc-Tb) Antibody for 45 min prior to addition of 40 nM Cit-CII peptide labeled with Alexa-647. The negative control was DMSO plus 1 nM Human IgG-Tb (anti-Fc-Tb) Antibody, incubated for 45 minutes before addition of 40 nM Cit-CII peptide labeled with Alexa-647. The positive control was DMSO plus 3 nM HLA-DR4 (with CLIP cleaved) plus 1 nM Human IgG-Tb (anti-Fc-Tb) Antibody with 40 nM Cit-CII peptide labeled with Alexa-647 added after a 45-minute incubation. Plates were centrifuged at 1000 rpm for 1 minute and then incubated at 37° C., at 90% relative humidity for 90 minutes. After incubation, plates were read on a spectrophotometer, the Pherastar FS (BMG Labtech), in HTRF mode. The HTRF ratio as well as percent inhibition was calculated. Curve fitting and IC50 calculation for dose response data was performed by Microsoft Excel, 3DX (Janssen proprietary software) or Graphpad Prism (Graphpad Software, San Diego, CA). […]

Assay [1] concerns HLA-DR4 restricted mouse T cell hybridoma line (DR4.CII.36.8) with HLA-DRB1*04:01-expressing Boleth cells. The assay is described as follows: HLA-DR4-restricted peptide-specific T cell-based assay (hybridoma assay). The settings on record: Mus musculus, T-cell, 6 h, inhibition of IL-2 production, CII259-273 peptide presented by Boleth cells.
Source text: as §1
HLA-DR4-Restricted Peptide-Specific T Cell-Based Assay (Hybridoma Assay)
The hybridoma assay was used to measure compound inhibition of TL-2 production from an HLA-DR4 restricted mouse T cell hybridoma line (DR4.CII.36.8) that was antigen-specific for collagen II259-273 (CII259-273) peptide when presented with an HLA-DR4 expressing Antigen Presenting Cell (APC) cell line (i.e., Boleth).
To the HLA-DRB1*04:01-expressing B cell line (Boleth cell line from International Histocompatibility Working Group (IHWG), ref #IHW09031) was presented the collagen II 259-273 peptide (CII259-273, GIAGFKGEQGPKGEP) to mouse T cell hybridoma (DR4.CII.36.8 T cell hybridoma; clone 36.8, expressing a CII259-273-specific, HLA-DRB1*04:01-restricted T cell receptor). Upon proper CII259-273 peptide presentation, the T cell hybridoma was activated and thus produced IL-2 cytokine, whose level in the cell culture supernatant was detected using mouse IL-2 AlphaLISA kit (Perkin Elmer, Cat: AL511F).
This assay was performed in a 384-well plate (polypropylene V-bottom Greiner bio-one, ref #784075) by: (i) pre-incubation of 20 μL of 1.25 million/mL Boleth cells (25,000 cells) resuspended in DMEM/1% fetal calf serum (FCS; Gibco, ref #16140-071) with 20 μL of 2.5× final concentration of compound of interest in DMEM/1% serum/0.75% DMSO at 37° C. for 1 hr in the incubator, then (ii) 10 μL of 5 million/mL (50,000 cells) DR4.CII.36.8 T cell hybridoma cells resuspended in DMEM/1% FCS was added and incubated for 6 h at 37° C. in the incubator. Supernatant was then collected and mouse IL-2 detected using AlphaLISA kit (ref #AL511F). Compounds were tested in duplicate, with 8-point titration. Mean±SD of AlphaLISA units at each compound concentration was used for compound IC50 calculation. The negative control for this experiment was run without peptide stimulation and used a DMSO vehicle wherein no compound of interest was added. The positive control was run with peptide stimulation and used a DMSO vehicle wherein no compound of interest was added. Both the negative and positive controls were run in 8 replicates each. Curve fitting and IC50 calculation for dose response data was performed by GraphPad software 6 or higher (GraphPad Software, San Diego, CA). Dose response data was plotted versus the log of compound concentration and IC50 was determined using 4-parameter logistic (4-PL) curve fitting.

pIC50: −log10 of the molar value.

Take `NC(=O)c1ccc([C@@H](Oc2ccc3c(c2)OCCC3=O)c2ccncc2F)cc1` (single isomer, unassigned) [Example 20a, (*R)-4-((3-fluoropyridin-4-yl)((4-oxochroman-7-yl)oxy)methyl)benzamide]: the pIC50 was 5.92 at HLA-DRB1*0401 and 5.16 in assay [1].

`NC(=O)c1ccc([C@H](Oc2ccc3c(c2)OCCC3=O)c2ccncc2F)cc1` (single isomer, unassigned) [Example 20b, (*S)-4-((3-fluoropyridin-4-yl)((4-oxochroman-7-yl)oxy)methyl)benzamide]: the pIC50 on HLA-DRB1*0401 was 6.04; in assay [1], 5.21.

Consider `Cc1cnccc1[C@H](Oc1ccc2c(c1)OCCC2=O)c1ccc(C(N)=O)cc1` (single isomer, unassigned) [Example 21a, (*R)-4-((3-Methylpyridin-4-yl)((4-oxochroman-7-yl)oxy)methyl)benzamide], for which the pIC50 against HLA-DRB1*0401 is 6.00; in assay [1] it was 5.27.

`Cc1cnccc1[C@@H](Oc1ccc2c(c1)OCCC2=O)c1ccc(C(N)=O)cc1` (single isomer, unassigned) [Example 21b, (*S)-4-((3-Methylpyridin-4-yl)((4-oxochroman-7-yl)oxy)methyl)benzamide]: the results for the negative-log IC50 (pIC50) (against HLA-DRB1*0401; in assay [1]) were 6.19 and 5.27, respectively.

Turning to `COc1cnccc1[C@H](Oc1ccc2c(c1)OCCC2=O)c1ccc(C(N)=O)cc1` (single isomer, unassigned) [Example 23a, (*R)-4-((3-methoxypyridin-4-yl)((4-oxochroman-7-yl)oxy)methyl)benzamide], the pIC50 was 6.35 against HLA-DRB1*0401 and 5.00 in assay [1].

With `NC(=O)c1ccc([C@@H](Oc2ccc3c(c2)OCCC3=O)c2ccncc2-c2ccccc2)cc1` (single isomer, unassigned) [Example 25a, (*R)-4-(((4-oxochroman-7-yl)oxy)(3-phenylpyridin-4-yl)methyl)benzamide], the results for the pIC50 (against HLA-DRB1*0401; in assay [1]) were 6.32 and 5.19, respectively.

As for `NC(=O)c1ccc([C@@H](Oc2ccc3c(c2)OCCC3=O)c2ccncc2N)cc1` (single isomer, unassigned) [Example 27a, (*R)-4-((3-aminopyridin-4-yl)((4-oxochroman-7-yl)oxy)methyl)benzamide], the negative logarithm of the IC50 (pIC50) is 5.14 on HLA-DRB1*0401 and 4.89 in assay [1].

In the case of `NC(=O)c1ccc([C@H](Oc2ccc3c(c2)OCCC3=O)c2ccncc2N)cc1` (single isomer, unassigned) [Example 27b, (*S)-4-((3-aminopyridin-4-yl)((4-oxochroman-7-yl)oxy)methyl)benzamide], the pIC50 was 5.19 against HLA-DRB1*0401 and below 4.82 in assay [1].

With `NC(=O)c1ccc([C@@H](Oc2ccc3c(c2)OCCC3=O)c2ccnc(N)c2)cc1` (single isomer, unassigned) [Example 28a, (*R)-4-((2-aminopyridin-4-yl)((4-oxochroman-7-yl)oxy)methyl)benzamide], the values for the pIC50 (against HLA-DRB1*0401; in assay [1]) were 5.74 and 5.16, respectively.

For `NC(=O)c1ccc([C@@H](Oc2ccc3c(c2)OCCC3=O)c2ccc(Cl)cc2)cc1` (single isomer, unassigned) [Example 30a, (*R)-4-((4-Chlorophenyl)((4-oxochroman-7-yl)oxy)methyl)benzamide], the pIC50 on HLA-DRB1*0401 is 6.03; in assay [1] it was 5.23.

For `NC(=O)c1ccc([C@H](Oc2ccc3c(c2)OCCC3=O)c2ccc(Cl)cc2)cc1` (single isomer, unassigned) [Example 30b, (*S)-4-((4-Chlorophenyl)((4-oxochroman-7-yl)oxy)methyl)benzamide], the pIC50 was 5.92 against HLA-DRB1*0401 and 5.19 in assay [1].

For the compound `NC(=O)c1ccc([C@@H](Oc2ccc3c(c2)OCCC3=O)c2ccccn2)cc1` (single isomer, unassigned) [Example 32a, (*R)-4-(((4-oxochroman-7-yl)oxy)(pyridin-2-yl)methyl)benzamide], the pIC50 at HLA-DRB1*0401 was 5.44; in assay [1], 5.09.

As for `NC(=O)c1ccc([C@H](Oc2ccc3c(c2)OCCC3=O)c2ccccn2)cc1` (single isomer, unassigned) [Example 32b, (*S)-4-(((4-oxochroman-7-yl)oxy)(pyridin-2-yl)methyl)benzamide], the results for the pIC50 (on HLA-DRB1*0401; in assay [1]) were 5.72 and below 4.82, respectively.

Turning to `NC(=O)c1ccc([C@@H](Oc2ccc3c(c2)OCCC3=O)c2ccncn2)cc1` (single isomer, unassigned) [Example 33a, (*R)-4-(((4-Oxochroman-7-yl)oxy)(pyrimidin-4-yl)methyl)benzamide], the pIC50 on HLA-DRB1*0401 was 6.24; in assay [1], 5.06.

Take `NC(=O)c1ccc([C@H](Oc2ccc3c(c2)OCCC3=O)c2ccncn2)cc1` (single isomer, unassigned) [Example 33b, (*S)-4-(((4-Oxochroman-7-yl)oxy)(pyrimidin-4-yl)methyl)benzamide]: the negative-log IC50 (pIC50) is 6.23 at HLA-DRB1*0401 and below 4.82 in assay [1].

As for `Cc1cc([C@@H](Oc2ccc3c(c2)OCCC3=O)c2ccncc2)ccc1C(N)=O` (single isomer, unassigned) [Example 35a, (*R)-2-methyl-4-(((4-oxochroman-7-yl)oxy)(pyridin-4-yl)methyl)benzamide], the pIC50 against HLA-DRB1*0401 was 6.02; in assay [1], below 4.82.

The values are drawn from patent publication US12516038B2, “Inhibitors of antigen presentation by HLA-DR” (Janssen Pharmaceutica NV, priority 2020, dated 2026).
